Experimental data: patent US11596611B2, “Hepatitis B antiviral agents” (ENANTA PHARMACEUTICALS, INC., priority 2017, dated 2023)
pEC50: −log10 of the molar value. Read-outs that look alike come from different tables or passages of the source.

Tested on: HBV
Assay: HepAD38 antiviral assay: reduction of viral product accumulation (virion DNA by qPCR, HBsAg or HBeAg by ELISA)
Type: cell-based, hepatitis B virus
Conditions: Hepatitis B virus; for pEC50: 120 h, HepAD38 cells, five days after compound addition, 50% reduction of viral product vs no drug controls, read-out: HepAD38 EC50; for EC50: HePAD38, 120 h, read-out: HepAD38 EC50 (μM)
Protocol: Methods: HepAD38 cells are maintained as previously reported (Ladner et al, Antimicrob. Agents Chemother. 1997, […], 1715). Briefly, cells are passaged upon attaining confluency in DMEM/F12 media in the presence of 10% FBS, Penn/Strep, 250 μg/mL G418, and 1 ug/ml tetracycline. Novel compounds are screened by first washing cells three times with PBS to remove tetracycline, and plating in 96 well plates at 35,000 cells/well. Compounds dissolved in DMSO are then diluted 1:200 into wells containing cells. Five days after compound addition, material is harvested for analysis. For an extended 8 days analysis, cells are plated and treated as described above, but media and compound are refreshed on d2 and d5 post initial treatment.
On harvest day, virion DNA is obtained by lysing with Sidestep Lysis and Stabilization Buffer and then quantified via quantitative real time PCR. Commercially available ELISA kits are used to quantitate the viral proteins HBsAg (Alpco) or HbeAg (US Biological) by following the manufacturer's recommended protocol after diluting samples to match the linear range of their respective assays.

Compound | pEC50 | EC50
CC(O)[C@@]1(O)C2CC[C@H]1C[C@H](S(=O)(=O)c1cc(C(=O)Nc3cc(F)c(F)c(F)c3)ccc1Cl)C2 (mixture of isomers) [Example 210] | > 6.98 | 
CC(O)[C@]1(O)CC2CC[C@@H](C1)[C@H]2S(=O)(=O)c1cc(C(=O)Nc2ccc(F)c(F)c2)ccc1Cl (mixture of isomers) [Example 7] | > 6.98 | 
CC(O)C(O)CNC(=O)[C@]1(O)C2CCC1C[C@@H](S(=O)(=O)c1cc(C(=O)Nc3cc(F)c(F)c(F)c3)ccc1Cl)C2 (mixture of isomers) [Example 38] | < 6.70 | 
O=C(Nc1cc(F)c(F)c(F)c1)c1ccc(Cl)c(S(=O)(=O)[C@H]2C3CC[C@H]2C[C@](O)(C(O)C(O)CO)C3)c1 (mixture of isomers) [Example 64] | 6.70 to 7.00 | 
O=C(Nc1ccc(F)c(F)c1)c1ccc(Cl)c(S(=O)(=O)[C@H]2CC3CCC(C2)[C@]3(O)C(O)CO)c1 (mixture of isomers) [Example 82] | > 6.98 | 
CC[C@@H](O)[C@H](O)[C@]1(O)C2CCC1C[C@@H](S(=O)(=O)c1cc(C(=O)Nc3ccc(F)c(F)c3)ccc1Cl)C2 (racemic) [Example 333] | > 6.98 | 
O=C(Nc1cc(F)c(F)c(F)c1)c1ccc(Cl)c(S(=O)(=O)[C@@H]2CC3CC[C@@H](C2)[C@@]3(O)CNC(=O)[C@]2(O)CCC[C@H]2O)c1 (relative stereo) [Example 59] | 6.70 to 7.00 | 
O=C(Nc1cc(F)c(F)c(F)c1)c1ccc(Cl)c(S(=O)(=O)[C@H]2CC3CCC(C2)[C@]3(O)CNC(=O)[C@@H]2CCCO2)c1 (single isomer, unassigned) [Example 14] | > 6.98 | 
O=C(Nc1cc(F)c(F)c(F)c1)c1ccc(Cl)c(S(=O)(=O)[C@H]2CC3CCC(C2)[C@]3(O)CNC(=O)C2CCC(O)C(O)C2)c1 (single isomer, unassigned) [Example 19] | < 6.70 | 
C[C@H](O)C(=O)O[C@@H](C)C(=O)NC[C@]1(O)C2CCC1C[C@@H](S(=O)(=O)c1cc(C(=O)Nc3cc(F)c(F)c(F)c3)ccc1Cl)C2 (single isomer, unassigned) [Example 106] | > 6.98 | 
C[C@H](O)[C@H](O)[C@]1(O)C2CCC1C[C@@H](S(=O)(=O)c1cc(C(=O)Nc3cc(F)c(F)c(F)c3)ccc1Cl)C2 (single isomer, unassigned) [Example 108] | > 6.98 | 
C[C@@H](O)[C@H](O)[C@]1(O)C2CCC1C[C@@H](S(=O)(=O)c1cc(C(=O)Nc3cc(F)c(F)c(F)c3)ccc1Cl)C2 (single isomer, unassigned) [Example 109] | > 6.98 | 
COC(=O)N[C@@H](C)C(=O)N1C2CCC1CC(S(=O)(=O)c1cc(C(=O)Nc3cc(F)c(F)c(F)c3)ccc1Cl)C2 (single isomer, unassigned) [Example 141] |  | 0.1 to 0.2 µM
CC1(C)OC[C@H](CN2C3CCC2CC(S(=O)(=O)c2cc(C(=O)Nc4cc(F)c(F)c(F)c4)ccc2Cl)C3)O1 (single isomer, unassigned) [Example 144] |  | 0.1 to 0.2 µM
C[C@H](O)[C@@H](O)COC[C@]1(O)C2CCC1C[C@@H](S(=O)(=O)c1cc(C(=O)Nc3cc(F)c(F)c(F)c3)ccc1Cl)C2 (single isomer, unassigned) [Example 164] | > 6.98 | 
O=C(Nc1ccc(F)c(F)c1)c1ccc(Cl)c(S(=O)(=O)[C@H]2CC3CCC(C2)[C@]3(O)[C@H](O)CO)c1 (single isomer, unassigned) [Example 174] | > 6.98 | 
O=C(Nc1ccc(F)c(F)c1)c1ccc(Cl)c(S(=O)(=O)[C@H]2CC3CCC(C2)[C@]3(O)[C@@H](O)CO)c1 (single isomer, unassigned) [Example 175] | > 6.98 | 
C[C@H](O)[C@H](O)[C@]1(O)C2CCC1C[C@@H](S(=O)(=O)c1cc(C(=O)Nc3ccc(F)c(F)c3)ccc1Cl)C2 (single isomer, unassigned) [Example 181] | > 6.98 | 
O=C(Nc1ccc(F)c(F)c1)c1ccc(Cl)c(S(=O)(=O)[C@H]2CC3CCC(C2)[C@H]3O)c1 (single isomer, unassigned) [Example 206] | 6.70 to 7.00 | 
O=C(Nc1ccc(F)c(F)c1)c1ccc(Cl)c(S(=O)(=O)[C@H]2CC3CCC(C2)[C@]3(O)[C@@H](O)c2ccccn2)c1 (single isomer, unassigned) [Example 284a] | > 6.98 | 
